Measured values: ChEMBL document CHEMBL1201862, “PubChem BioAssay data set” (2004)
The source made the active and inactive calls.

What was measured:
[1] = molecular target: T1, Aminopeptidase N (Plasmodium falciparum FcB1/Columbia, UniProt O96935); assay: malaria alanyl aminopeptidase activity blockers – biochemical, fluorogenic H-Leu-NHMec substrate, 1536-well (AID 1445); set-up: species or system Plasmodium falciparum 3D7, 3D7
T1 sequence (O96935 whole entry): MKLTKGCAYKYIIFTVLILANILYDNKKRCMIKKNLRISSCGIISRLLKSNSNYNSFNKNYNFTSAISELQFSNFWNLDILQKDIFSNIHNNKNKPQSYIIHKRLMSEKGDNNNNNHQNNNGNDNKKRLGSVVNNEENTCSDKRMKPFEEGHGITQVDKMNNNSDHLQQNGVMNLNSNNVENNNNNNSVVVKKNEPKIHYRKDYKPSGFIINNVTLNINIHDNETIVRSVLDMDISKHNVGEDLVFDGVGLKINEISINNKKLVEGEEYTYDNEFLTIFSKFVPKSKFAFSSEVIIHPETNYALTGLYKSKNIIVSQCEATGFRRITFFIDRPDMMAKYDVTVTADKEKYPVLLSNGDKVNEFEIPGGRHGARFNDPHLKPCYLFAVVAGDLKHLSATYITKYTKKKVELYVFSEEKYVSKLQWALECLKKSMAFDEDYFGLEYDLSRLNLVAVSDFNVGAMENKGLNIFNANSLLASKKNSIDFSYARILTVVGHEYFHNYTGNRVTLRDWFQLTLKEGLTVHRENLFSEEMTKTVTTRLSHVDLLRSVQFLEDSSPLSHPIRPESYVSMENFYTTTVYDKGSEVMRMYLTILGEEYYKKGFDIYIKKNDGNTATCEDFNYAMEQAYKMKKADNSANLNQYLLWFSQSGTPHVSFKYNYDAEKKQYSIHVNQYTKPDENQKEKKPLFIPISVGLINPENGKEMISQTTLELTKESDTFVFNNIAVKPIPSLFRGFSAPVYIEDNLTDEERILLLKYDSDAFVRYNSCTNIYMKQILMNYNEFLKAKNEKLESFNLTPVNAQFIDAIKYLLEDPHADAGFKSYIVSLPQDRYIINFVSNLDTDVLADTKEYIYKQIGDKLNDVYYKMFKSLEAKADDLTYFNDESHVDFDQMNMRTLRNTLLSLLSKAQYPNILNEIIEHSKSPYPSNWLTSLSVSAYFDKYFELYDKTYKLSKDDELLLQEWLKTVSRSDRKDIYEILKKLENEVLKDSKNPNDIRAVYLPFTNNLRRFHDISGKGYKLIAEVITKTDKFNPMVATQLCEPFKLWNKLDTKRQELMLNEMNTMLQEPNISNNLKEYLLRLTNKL

[2] = M. tuberculosis H37Rv growth inhibitors, H37Rv strain (AID 1626); assay type: functional
[3] = system: Streptococcus sp. 'group A'; assay: Streptococcus pyogenes SK(-)GAS viability under kanamycin – luminescence, BacTiterGlo, confirmation, counter-screen for streptokinase expression inhibitor project, dose response (AID 1900); assay type: functional, organism-based
[4] = molecular target: T2, Streptokinase A (Streptococcus pyogenes serotype M1, UniProt P10520); assay: viability-normalized secreted streptokinase activity reduction – plasminogen activation absorbance, OD405, dose response (AID 1914); assay type: functional, Streptococcus pyogenes M1 GAS;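 also: secreted streptokinase activity via plasminogen activation per viability signal from cell pellet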
T2 sequence (P10520 whole entry): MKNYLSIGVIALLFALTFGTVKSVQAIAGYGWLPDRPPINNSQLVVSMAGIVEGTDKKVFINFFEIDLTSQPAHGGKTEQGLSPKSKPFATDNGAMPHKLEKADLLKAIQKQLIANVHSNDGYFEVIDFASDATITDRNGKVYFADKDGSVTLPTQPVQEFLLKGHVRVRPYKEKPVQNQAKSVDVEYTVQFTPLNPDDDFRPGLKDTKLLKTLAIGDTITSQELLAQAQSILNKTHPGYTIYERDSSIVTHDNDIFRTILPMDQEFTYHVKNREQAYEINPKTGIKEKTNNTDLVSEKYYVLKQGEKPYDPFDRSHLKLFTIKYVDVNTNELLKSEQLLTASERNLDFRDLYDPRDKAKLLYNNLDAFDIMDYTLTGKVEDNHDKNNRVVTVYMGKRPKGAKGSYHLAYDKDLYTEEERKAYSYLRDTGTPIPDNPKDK

[5] = system: Streptococcus; assay: GAS UMAA2166 growth inhibition – luminescence, BacTiterGlo, counter-screen for streptokinase expression inhibitor project, dose response (AID 1915); assay type: functional, organism-based;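 also: potency for reduction of bacterial viability or growth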
[6] = molecular target: Beta-galactosidase (Escherichia coli, UniProt Q8VNN2); assay: detection-enzyme interference by beta-gal modulators – biochemical, E. coli enzyme, set 3, artefact control for CCR6 antagonist project, dose response (AID 504712); assay type: functional
Beta-galactosidase, sequence (Q8VNN2 whole entry): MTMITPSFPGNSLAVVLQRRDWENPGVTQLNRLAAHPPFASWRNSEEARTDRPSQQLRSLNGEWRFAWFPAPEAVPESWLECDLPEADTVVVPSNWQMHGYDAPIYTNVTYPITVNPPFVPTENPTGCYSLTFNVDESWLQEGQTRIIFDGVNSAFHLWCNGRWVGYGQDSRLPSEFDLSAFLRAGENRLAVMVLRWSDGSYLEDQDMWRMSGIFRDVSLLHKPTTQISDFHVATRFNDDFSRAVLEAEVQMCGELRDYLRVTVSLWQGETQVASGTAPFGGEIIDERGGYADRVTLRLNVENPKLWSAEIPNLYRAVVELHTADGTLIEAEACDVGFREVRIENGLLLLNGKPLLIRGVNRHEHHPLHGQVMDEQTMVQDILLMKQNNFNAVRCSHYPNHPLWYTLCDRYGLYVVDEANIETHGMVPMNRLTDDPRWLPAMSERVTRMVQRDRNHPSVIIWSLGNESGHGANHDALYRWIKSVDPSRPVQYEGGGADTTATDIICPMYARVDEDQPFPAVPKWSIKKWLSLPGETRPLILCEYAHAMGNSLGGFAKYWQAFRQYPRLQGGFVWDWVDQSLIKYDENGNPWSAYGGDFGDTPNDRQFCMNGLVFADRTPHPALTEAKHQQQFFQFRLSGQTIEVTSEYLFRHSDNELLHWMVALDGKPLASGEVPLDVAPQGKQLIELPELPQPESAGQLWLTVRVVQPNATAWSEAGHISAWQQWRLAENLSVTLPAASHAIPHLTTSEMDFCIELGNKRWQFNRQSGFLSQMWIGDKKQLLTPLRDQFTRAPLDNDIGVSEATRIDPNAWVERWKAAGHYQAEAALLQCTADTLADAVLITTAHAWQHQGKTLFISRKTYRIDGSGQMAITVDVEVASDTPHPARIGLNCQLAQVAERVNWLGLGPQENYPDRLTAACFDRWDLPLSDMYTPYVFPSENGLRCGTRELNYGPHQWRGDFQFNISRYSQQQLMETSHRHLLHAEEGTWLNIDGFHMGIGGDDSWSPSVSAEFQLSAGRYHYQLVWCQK

[7] = viability loss in Vero cells – cytotoxicity control for Vif-APOBEC3G degradation inhibitor project, dose response (AID 1117358); assay type: functional; conditions: Vero
[8] = molecular target: DNA dC->dU-editing enzyme APOBEC-3A (Homo sapiens, UniProt P31941); assay: A3A deaminase inhibition for selectivity – biochemical, dose response (AID 504722); assay type: functional
DNA dC->dU-editing enzyme APOBEC-3A, sequence (P31941 whole entry): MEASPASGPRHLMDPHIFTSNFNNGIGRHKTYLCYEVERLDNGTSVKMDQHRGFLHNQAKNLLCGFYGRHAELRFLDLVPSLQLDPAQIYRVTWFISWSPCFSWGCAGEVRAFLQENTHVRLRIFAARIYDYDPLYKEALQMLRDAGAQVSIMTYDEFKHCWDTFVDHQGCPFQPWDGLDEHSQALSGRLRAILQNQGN

[9] = molecular target: DNA dC->dU-editing enzyme APOBEC-3G (Homo sapiens, UniProt Q9HC16); assay: Dose Response confirmation of small molecule APOBEC3G DNA Deaminase Inhibitors via a fluorescence-based single-stranded DNA deaminase assay. [Related pubchem assays (depositor defined):AID493012, AID493028]; assay type: functional
DNA dC->dU-editing enzyme APOBEC-3G, sequence (Q9HC16 whole entry): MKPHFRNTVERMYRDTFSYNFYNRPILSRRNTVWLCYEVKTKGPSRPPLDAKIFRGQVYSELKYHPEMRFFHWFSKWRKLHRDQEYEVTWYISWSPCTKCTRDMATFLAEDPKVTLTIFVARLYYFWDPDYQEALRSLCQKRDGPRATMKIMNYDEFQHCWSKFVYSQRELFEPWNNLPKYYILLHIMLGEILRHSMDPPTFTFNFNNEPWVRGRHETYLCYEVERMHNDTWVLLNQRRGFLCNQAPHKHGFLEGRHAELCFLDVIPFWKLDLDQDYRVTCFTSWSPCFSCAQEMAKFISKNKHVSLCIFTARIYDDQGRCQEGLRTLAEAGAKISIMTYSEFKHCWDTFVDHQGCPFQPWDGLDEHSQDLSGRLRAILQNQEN

[10] = molecular target: T3, SUMO-activating enzyme (Homo sapiens, UniProt Q9UBT2); assay: blockers of UBC9-mediated SUMO conjugation – biochemical, AlphaScreen, SUMOylation inhibitor project, confirmation (AID 2018); assay type: functional
T3 sequence (Q9UBE0 whole entry): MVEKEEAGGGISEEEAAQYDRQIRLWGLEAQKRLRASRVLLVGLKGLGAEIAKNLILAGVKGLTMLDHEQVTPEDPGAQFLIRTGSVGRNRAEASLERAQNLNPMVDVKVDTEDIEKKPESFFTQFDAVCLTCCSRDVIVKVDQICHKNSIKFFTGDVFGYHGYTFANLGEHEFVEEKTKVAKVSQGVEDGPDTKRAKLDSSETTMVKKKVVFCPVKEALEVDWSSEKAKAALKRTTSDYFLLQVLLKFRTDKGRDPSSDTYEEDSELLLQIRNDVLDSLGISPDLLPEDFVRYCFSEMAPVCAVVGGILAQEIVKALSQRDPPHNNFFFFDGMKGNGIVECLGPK
T3 sequence (Q9UBT2 whole entry): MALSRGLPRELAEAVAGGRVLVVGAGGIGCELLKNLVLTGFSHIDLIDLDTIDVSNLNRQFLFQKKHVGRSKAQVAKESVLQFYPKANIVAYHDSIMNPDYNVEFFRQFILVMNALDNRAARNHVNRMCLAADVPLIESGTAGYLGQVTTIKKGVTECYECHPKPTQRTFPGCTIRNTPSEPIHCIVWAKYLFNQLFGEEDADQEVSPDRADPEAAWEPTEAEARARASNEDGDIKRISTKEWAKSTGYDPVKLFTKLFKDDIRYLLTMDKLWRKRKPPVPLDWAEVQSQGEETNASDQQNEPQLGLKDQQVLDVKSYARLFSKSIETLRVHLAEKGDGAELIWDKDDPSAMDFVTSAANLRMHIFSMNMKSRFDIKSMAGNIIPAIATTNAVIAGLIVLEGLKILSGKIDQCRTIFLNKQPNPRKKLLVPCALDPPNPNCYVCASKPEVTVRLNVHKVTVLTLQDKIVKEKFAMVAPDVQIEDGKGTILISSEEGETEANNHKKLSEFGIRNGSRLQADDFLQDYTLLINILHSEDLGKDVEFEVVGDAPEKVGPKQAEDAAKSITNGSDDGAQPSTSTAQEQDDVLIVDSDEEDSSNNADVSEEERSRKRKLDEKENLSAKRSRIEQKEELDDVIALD

[11] = molecular target: T3, SUMO-activating enzyme; assay: blockers of SAE1/SAE2–UBC9 SUMO transfer – biochemical, HTRF, uHTS, primary screen (AID 2006); assay type: protein-complex assay
[12] = system: H9c2; assay: cells; assay type: functional, cell-based; conditions: Rattus norvegicus, H9c2, Myocardium;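 also: confirmatory concentration-response retest of ultra-high-throughput screening hits for modulation of myocardial damage; cell death induced by hydrogen peroxide oxidative stress; compound pretreatment for 60 min then peroxide exposure for 2 h; potency is for protecting the cells against peroxide damage rather than for killing them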
[13] = Trypanosoma cruzi growth suppression in host cells – NIH3T3 host cells, beta-gal luminescence, confirmation (AID 2044); assay type: functional, cell-based;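 also: intracellular parasites grown in NIH/3T3 mouse fibroblasts as host cells; luminescent beta-galactosidase reporter signal from transgenic T. cruzi replicating inside host cells; inhibitors lower the luminescence signal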
[14] = NIH3T3 cell viability loss – ATP luminescence, mouse fibroblasts, counter-screen, dose response (AID 2010); assay type: functional, cell-based;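 also: cells exposed to compound for about 90 hours before reading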
[15] = cells
[16] = molecular target: G-protein coupled receptor 55 (Homo sapiens, UniProt Q9Y2T6); assay: selective activators of receptor GPR55 – imaging, U2OS cells, beta-arrestin-GFP redistribution, primary screen (AID 1961); assay type: functional
G-protein coupled receptor 55, sequence (Q9Y2T6 whole entry): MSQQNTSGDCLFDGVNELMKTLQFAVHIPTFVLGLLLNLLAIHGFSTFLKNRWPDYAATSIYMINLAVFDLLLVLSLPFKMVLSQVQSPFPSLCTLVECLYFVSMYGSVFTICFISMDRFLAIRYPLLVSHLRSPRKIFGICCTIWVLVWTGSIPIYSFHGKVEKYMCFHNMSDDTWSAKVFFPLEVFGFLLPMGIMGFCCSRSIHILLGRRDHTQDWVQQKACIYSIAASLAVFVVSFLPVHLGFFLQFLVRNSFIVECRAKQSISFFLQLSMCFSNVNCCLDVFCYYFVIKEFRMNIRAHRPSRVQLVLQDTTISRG

[17] = molecular target: Induced myeloid leukemia cell differentiation protein Mcl-1 (Homo sapiens, UniProt Q07820); assay type: functional
Induced myeloid leukemia cell differentiation protein Mcl-1, sequence (Q07820 whole entry): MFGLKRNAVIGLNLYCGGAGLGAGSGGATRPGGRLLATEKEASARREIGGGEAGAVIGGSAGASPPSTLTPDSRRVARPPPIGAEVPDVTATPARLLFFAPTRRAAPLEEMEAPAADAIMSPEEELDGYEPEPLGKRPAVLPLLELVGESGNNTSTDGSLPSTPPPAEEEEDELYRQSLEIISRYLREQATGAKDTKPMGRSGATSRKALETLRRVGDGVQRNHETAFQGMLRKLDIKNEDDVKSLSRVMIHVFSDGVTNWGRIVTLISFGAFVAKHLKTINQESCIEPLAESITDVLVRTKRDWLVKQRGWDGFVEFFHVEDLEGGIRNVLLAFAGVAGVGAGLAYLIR

[18] = molecular target: Genome polyprotein (dengue virus type 2, UniProt P29990); assay: flavivirus cap methylation enzyme inhibition – biochemical, confirmation dose response, primary screen (AID 588689); assay type: functional
Genome polyprotein, sequence (P29990 2492-3391 limits assumed): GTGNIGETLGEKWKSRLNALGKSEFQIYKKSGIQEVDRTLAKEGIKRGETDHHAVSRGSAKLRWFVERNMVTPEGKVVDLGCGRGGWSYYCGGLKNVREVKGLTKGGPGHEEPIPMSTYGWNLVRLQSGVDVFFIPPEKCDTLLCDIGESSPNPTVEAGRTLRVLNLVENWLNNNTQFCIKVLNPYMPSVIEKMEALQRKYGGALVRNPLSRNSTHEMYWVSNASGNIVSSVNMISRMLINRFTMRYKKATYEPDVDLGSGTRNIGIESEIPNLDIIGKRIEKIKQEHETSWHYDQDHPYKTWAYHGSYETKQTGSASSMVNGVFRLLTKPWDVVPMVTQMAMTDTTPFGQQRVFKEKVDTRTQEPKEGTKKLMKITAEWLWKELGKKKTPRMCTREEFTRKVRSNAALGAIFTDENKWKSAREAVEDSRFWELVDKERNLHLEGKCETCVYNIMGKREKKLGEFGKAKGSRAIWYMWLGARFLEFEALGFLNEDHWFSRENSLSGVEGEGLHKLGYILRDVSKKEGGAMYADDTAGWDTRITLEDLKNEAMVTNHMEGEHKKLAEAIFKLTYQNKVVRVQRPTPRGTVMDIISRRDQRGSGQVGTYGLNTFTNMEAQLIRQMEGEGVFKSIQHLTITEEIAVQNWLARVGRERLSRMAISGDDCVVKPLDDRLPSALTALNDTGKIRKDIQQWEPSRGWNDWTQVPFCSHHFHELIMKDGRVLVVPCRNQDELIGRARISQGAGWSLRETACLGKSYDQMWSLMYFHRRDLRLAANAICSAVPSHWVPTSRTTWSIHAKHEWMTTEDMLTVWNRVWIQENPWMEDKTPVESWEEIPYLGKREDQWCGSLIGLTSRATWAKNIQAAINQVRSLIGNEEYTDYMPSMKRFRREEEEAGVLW

[19] = system: HEK293; assay: inhibition of NOD1-driven NF-kB reporter – cell-based, luminescence, uHTS, primary screen (AID 1578); assay type: functional; conditions: Homo sapiens
[20] = system: HEK293; assay: cells; assay type: functional, cell-based; conditions: Homo sapiens
[21] = system: HEK293; assay: cells; assay type: functional, cell-based; conditions: Homo sapiens; remark: listed apart in the source
[22] = system: HEK293; assay: NOD2 signaling inhibitors in MDP-stimulated cells, cell-based, uHTS, luminescence (AID 2001); assay type: functional; conditions: Homo sapiens
[23] = molecular target: T4, Replicative DNA helicase DnaB (Mycobacterium tuberculosis, UniProt P9WMR3); assay: DnaB intein splicing inhibitors, dose response, biochemical, cell-free fluorescence (AID 449749); assay type: functional
T4 sequence (P9WMR3 whole entry): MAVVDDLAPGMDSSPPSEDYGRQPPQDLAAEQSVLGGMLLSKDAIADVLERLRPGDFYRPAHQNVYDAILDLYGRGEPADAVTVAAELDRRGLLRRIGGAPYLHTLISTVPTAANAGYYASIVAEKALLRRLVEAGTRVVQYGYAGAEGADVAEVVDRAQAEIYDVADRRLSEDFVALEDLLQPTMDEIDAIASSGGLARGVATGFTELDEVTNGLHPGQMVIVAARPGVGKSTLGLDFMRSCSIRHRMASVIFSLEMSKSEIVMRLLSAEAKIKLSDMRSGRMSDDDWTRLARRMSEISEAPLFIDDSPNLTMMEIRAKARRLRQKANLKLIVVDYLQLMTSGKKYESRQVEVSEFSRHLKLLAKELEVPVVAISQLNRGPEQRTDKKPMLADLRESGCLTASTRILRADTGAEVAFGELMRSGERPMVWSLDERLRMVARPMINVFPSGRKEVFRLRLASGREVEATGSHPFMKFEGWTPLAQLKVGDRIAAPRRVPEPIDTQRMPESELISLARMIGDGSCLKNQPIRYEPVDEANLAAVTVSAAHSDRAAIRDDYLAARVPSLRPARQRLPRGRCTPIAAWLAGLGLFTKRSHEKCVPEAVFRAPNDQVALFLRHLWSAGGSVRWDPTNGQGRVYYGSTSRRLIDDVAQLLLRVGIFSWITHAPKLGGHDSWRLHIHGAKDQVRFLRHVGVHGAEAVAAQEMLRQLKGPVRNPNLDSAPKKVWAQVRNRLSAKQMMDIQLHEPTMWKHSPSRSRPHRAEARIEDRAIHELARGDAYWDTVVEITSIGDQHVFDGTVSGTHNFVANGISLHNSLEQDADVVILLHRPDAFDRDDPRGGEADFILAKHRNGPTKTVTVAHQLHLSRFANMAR

[24] = molecular target: T5, Protein RecA (Mycobacterium tuberculosis, UniProt P9WHJ3); assay: Fluorescence Cell-Free Homogeneous Dose Retest to Identify Inhibitors of RecA-Intein Splicing Activity. [Related pubchem assays (depositor defined):AID2097, AID2223, AID489010, AID492950]; assay type: functional
T5 sequence (P9WHJ3 whole entry): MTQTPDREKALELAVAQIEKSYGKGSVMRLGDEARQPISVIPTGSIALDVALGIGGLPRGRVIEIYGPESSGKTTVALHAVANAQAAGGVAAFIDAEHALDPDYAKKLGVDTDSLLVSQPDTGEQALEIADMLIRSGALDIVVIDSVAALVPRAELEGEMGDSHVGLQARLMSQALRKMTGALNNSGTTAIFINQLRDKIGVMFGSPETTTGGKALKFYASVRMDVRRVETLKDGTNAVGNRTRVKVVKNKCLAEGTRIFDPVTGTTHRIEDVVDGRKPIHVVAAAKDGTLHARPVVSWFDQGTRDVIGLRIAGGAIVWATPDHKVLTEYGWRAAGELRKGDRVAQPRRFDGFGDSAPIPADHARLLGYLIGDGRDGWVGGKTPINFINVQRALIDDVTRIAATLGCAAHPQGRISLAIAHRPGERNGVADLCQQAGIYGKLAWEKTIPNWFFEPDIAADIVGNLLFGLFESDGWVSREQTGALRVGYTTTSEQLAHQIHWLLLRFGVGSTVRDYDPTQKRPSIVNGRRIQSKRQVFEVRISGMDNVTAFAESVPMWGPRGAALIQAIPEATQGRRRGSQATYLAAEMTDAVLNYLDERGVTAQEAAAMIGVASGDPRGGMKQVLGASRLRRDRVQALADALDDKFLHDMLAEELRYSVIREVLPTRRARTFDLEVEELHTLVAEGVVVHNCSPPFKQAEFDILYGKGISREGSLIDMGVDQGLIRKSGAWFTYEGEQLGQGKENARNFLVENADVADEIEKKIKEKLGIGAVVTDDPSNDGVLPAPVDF

Cc1ccc(-c2nn(C)c(=O)c3ccccc23)cc1CNC(=O)c1ccccc1
IC50 [1]: 7.39 µM (active)

CC(=O)Nc1ccc(S(=O)(=O)Nc2cccc(-c3csc(C)n3)c2)cc1
IC50 [1]: 58.2 µM (active)

O=C(O)Cc1c(O)nc2ccc(Br)cc2c1-c1ccccc1Cl
IC50 [1]: 23.1 µM (active)

CCOc1ccc(NC(=O)N(C2CCCCCC2)C2CCN(C(C)=O)CC2)cc1
IC50 [2]: > 100 µM (active)

COc1cccc(C(=O)NC(=S)N2CCN(c3ccc(C(F)(F)F)cc3[N+](=O)[O-])CC2)c1
EC50 [3]: > 150 µM (not active) | EC50 [4]: > 150 µM (not active) | EC50 [5]: > 150 µM (not active) | IC50 [6]: > 66.6 µM (inactive)

O=C(Nc1nccs1)c1cn(-c2ccccc2)nc1-c1ccccc1
IC50 [2]: > 100 µM (active)

Cc1cccc(N2CCN(C(=O)c3ccncc3)CC2)c1C
CC50 [7]: > 40 µM (active)

Sc1nc2cc(Br)c[nH]c-2n1
IC50 [8]: > 100 µM (inactive) | IC50 [9]: 2.94 µM (active)

Cc1ccc(S(=O)(=O)n2ccc(OC(=O)c3cccs3)n2)cc1
IC50 [10]: 3.61 µM (active) | IC50 [11]: 94.8 µM (active)

C=CCOc1ccc(/C=N/c2ccc(OC)cc2)c(O)c1
IC50 [2]: > 100 µM (active) | IC50 [12]: 9.42 µM (active)

CC(=O)c1cccc(CN2CCCC(CCC(=O)NCc3ccccc3F)C2)c1 (stereo not given)
EC50 [13]: < 0.1 µM (active) | EC50 [14]: > 60 µM (not active) | EC50 [15]: 0.04 µM (active)

COc1cccc(Cn2cc(-c3cccc(C(F)(F)F)c3)nn2)c1
EC50 [16]: 9.1 µM (active)

Cc1ccc(SC[C@H](Cc2ccccc2)N2CC[C@@H](NC(=O)OCc3ccccc3)CCC2=O)cc1
EC50 [16]: 1.42 µM (active)

Cc1[nH]n(-c2ncc(-c3ccccc3)s2)c(=O)c1C(c1ccc(Cl)cc1)C(C#N)C#N (stereo not given)
IC50 [10]: 7.91 µM (active) | IC50 [11]: 28.8 µM (active) | IC50 [17]: 8.69 µM (active) | IC50 [18]: 31.9 µM (active)

CCN(Cc1ccc(C#CCCO)cc1)CC1CCCN(CCc2cccc(F)c2)C1 (stereo not given)
EC50 [13]: < 0.1 µM (active) | EC50 [14]: 8.84 µM (active) | EC50 [15]: 0.369 µM (active)

CC(C)CCn1c(Sc2nc3ccccc3o2)nc2c1c(=O)[nH]c(=O)n2C
EC50 [19]: > 20 µM (inactive) | IC50 [20]: 7.89 µM (active) | IC50 [21]: > 20 µM (inactive) | IC50 [22]: 5.79 µM (active) | AC50 [23]: > 380 µM (inconclusive) | EC50 [24]: 4.76 µM (active)

O=C(CCNS(=O)(=O)c1ccc(Cl)cc1)NCc1cccnc1
CC50 [7]: > 40 µM (active)
